Test results from patent publication US9808444B2 (BioHealthonomics Inc., priority 2012, dated 2017).

Columns and labels:
migraine attacks [1] = settings: cited from earlier work
migraine attacks [2] = settings: subcutaneous, twice weekly, 1 μg (0.1 mL) increasing to 10 μg (1.0 mL) over 12 weeks; cited from earlier work
[3] = tested on: headache / migraine attack; settings: cited from earlier work
migraine headaches = settings: one subject, subcutaneous, Table 5 regimen
migraine attacks [4] = settings: subcutaneous 1-10 ng twice a week vs oral sodium valproate 500 mg daily, cited from earlier work
[5] = doses of 1 to 3 ng twice a week, P<0.0001
[6] = migraine subjects, intravenous, 0.5 mg/kg per minute for 20 min

CNCCc1c[nH]cn1 [N^α-methylhistamine]
adverse side effects (migraine attacks [1]; doses greater than 3 ng): intense headache
duration of migraine attacks (migraine attacks [1]; [5]): significantly reduced
frequency of migraine attacks (migraine attacks [1]; [5]): significantly reduced
intensity of migraine attacks (migraine attacks [1]; [5]): significantly reduced
need for rescue analgesics (migraine attacks [1]; [5]): significantly reduced

NCCc1c[nH]cn1 [histamine, 2-(1H-imidazol-4-yl)ethanamine]
decrease in length of migraine attacks (migraine attacks [2]): 45%
decrease in pain intensity (migraine attacks [2]): 51%
decrease in painkiller use (migraine attacks [2]): 52%
reduction of headache frequency (migraine attacks [2]): 50%
side effect after the infusion [3, 6]: delayed migraine attack
side effect during the infusion [3, 6]: immediate headache
intensity of migraines (migraine headaches): drastically reduced
quality of life (migraine headaches): Drastically improved
side effects associated with the regimen (migraine headaches): no histamine-induced headaches
frequency of migraines after the dosing regimen (migraine headaches; before the regimen about 3-5 migraines per week): ~1 migraine every 2 months
MIDAS versus sodium valproate (migraine attacks [4]): No difference
frequency of attacks versus sodium valproate (migraine attacks [4]): No difference
analgesic intake versus sodium valproate (migraine attacks [4]; weeks 4, 8, 12, P<0.001): significantly greater reduction
intensity of migraine attacks versus sodium valproate (migraine attacks [4]; weeks 4, 8, 12, P<0.001): significantly greater reduction

COc1ccc(CN(CCN(C)C)c2ccccn2)cc1 [mepyramine]
effect of pre-treatment on histamine-induced headache and delayed migraine attack ([3]; pre-treatment before intravenous histamine in migraine subjects): abolished
